Results reported in PMC8615109, “Assessment of Micafungin Dosage Regimens in Patients with Cancer Using Pharmacokinetic/Pharmacodynamic Modeling and Monte Carlo Simulation” (Antibiotics, 2021).
Numbered stars: 1 amine (or outer) side, 2 acyl side, 3 side chain; on linkers, the order of the positions; unused ones are H or OH. Bridge positions count the residues as written; N and C are the ends. Square brackets hold non-standard residues; d marks the D form. Peptide text beside a SMILES is read from it. * marks the point of attachment. hTyr(3S-OH,4S-OH,3'-OSO3H) = N[C@H](C(=O)O)[C@H](O)[C@@H](O)c1ccc(O)c(OS(=O)(=O)O)c1; Orn(4R-OH,5R-OH) = O=C([C@H](C[C@@H](O)[C@@H](O)N[*:3])N[*:1])[*:2]; Pro(3S-OH,4S-Me) = C[C@H]1CN[C@H](C(=O)O)[C@H]1O; X1 = CCCCCOc1ccc(-c2cc(-c3ccc(C(=O)*)cc3)no2)cc1; Gln(3R-OH) = NC(=O)C[C@@H](O)[C@H](N)C(=O)O; Hyp = O=C(O)[C@@H]1C[C@@H](O)CN1

Columns and labels:
[1] = clinical; assay type: in vivo, human (adult patients); settings: population estimate; for clearance: both sexes, human, in vivo, iv, two-compartment population model (Monolix 4.4), plasma HPLC-UV
Experimental: This was a prospective pharmacokinetic study to compare adult patients with and without cancer. The study was conducted at King Saud University Medical City, a tertiary hospital. The study included male and female patients aged ≥ 18 years, who were admitted to the hospital and received a minimum of 2 micafungin doses based on empirical evidence or culture results. Patients who were pregnant and those with a micafungin allergy were excluded. The study protocol was approved by the Institutional Review Board of King Saud University Medical City (E-18-3373), and written informed consent was obtained from all patients before their inclusion in the study.
All patients were treated with a 100–150 mg daily dose of micafungin for empirical use or confirmed fungal infection. Micafungin was diluted in 100 mL isotonic saline solution and infused over 60 min. Blood samples were drawn at 1, 2, 4, 6, 8, 12, and 24 h from the initiation of the micafungin dose. All blood samples were centrifuged, and plasma samples were stored at −80 °C until analysis.
Plasma micafungin concentrations were determined using a high-performance liquid chromatography (HPLC) method with a UV detection system, with slight modification. Plasma samples were separated from whole blood, acidified with phosphoric acid, precipitated with acetonitrile, and centrifuged prior to dilution with buffer and injection into an HPLC system. Anidulafungin served as I.S. for micafungin. The method was fully validated and achieved using an isocratic Prominence Shimadzu HPLC system (Shimadzu, Columbia, MD, USA), which comprised an autosampler (SIL-20AHT), a UV detector (Shimadzu UV SPD-20A), and a pump (LC-20AB) connected to a degasser (Dgu-20A3). The separation of micafungin was performed on a Phenomenex Luna C18 column (250 × 4.6 mm i.d., 5 µm; Phenomenex, CA). The mobile phase comprised 0.1% (w/w) ammonium acetate in water, with pH adjusted to 7.0 with 25% NH3 solution and acetonitrile (70%:30%); the flow rate was 1 mL/min, and micafungin was detected at 273 nm. Data acquisition was achieved using LC Solution chromatographic software version 1.22 SP1 (Shimadzu, Columbia, MD, USA).
Data from patients with and without cancer were comodeled using Monolix 4.4 software (Supplementary File S1). Monolix estimates pharmacokinetic parameters using the stochastic approximation expectation maximization algorithm. In the first step, we developed the base structural model for micafungin by fitting various compartmental models to plasma drug concentrations. The following criteria were followed to select between models: (a) a decrease in the minimum of the objective function value (log-likelihood value); (b) precision of the parameter estimation expressed as RSE (%) and calculated as the ratio between the standard error and final parameter estimate; (c) physiologic plausibility; and (d) GOF plots including observed and predicted concentrations, residuals plot, and visual predictive check.
A covariate model was developed in a stepwise fashion, with forward inclusion based on model selection criteria. First, we plotted the empirical Bayesian estimates vs. covariates to screen for potentially significant correlations. Next, we performed a stepwise regression analysis to test the significant covariates identified in step 1, using the −2 log-likelihood ratio test. Age, body weight, height, BMI, sex, serum creatinine, creatinine clearance, sequential organ failure assessment score, and levels of AST, alanine transaminase, total bilirubin, and albumin were tested as covariates.
GOF was assessed using the log-likelihood criterion during model building. Plots of model-based individual and population predictions vs. the observed concentrations were performed for model assessment. A predicted–corrected visual predictive check using 1000 simulations was constructed to study the performance of the final model. […]

[2] = cited from earlier work
From the text: Micafungin is metabolized in the liver by catechol O-methyltransferase, arylsulfatase, and hydroxylation. Only 1% of the unchanged drug is excreted through the kidneys. […] The elimination pharmacokinetics of micafungin in patients with advanced hepatic insufficiency are not fully understood. […] We described the plasma concentration-time curve of micafungin using a two-compartment model, similar to that described in previous studies. […] Overall, there were no differences in the ...

[3] = patients with cancer (n = 10), 100 mg/day i.v.
[4] = patients without cancer (n = 9), 100-150 mg/day i.v.

CCCCCOc1ccc(-c2cc(-c3ccc(C(=O)N[C@H]4C[C@@H](O)[C@@H](O)NC(=O)[C@@H]5[C@@H](O)[C@@H](C)CN5C(=O)[C@H]([C@H](O)CC(N)=O)NC(=O)[C@H]([C@H](O)[C@@H](O)c5ccc(O)c(OS(=O)(=O)O)c5)NC(=O)[C@@H]5C[C@@H](O)CN5C(=O)[C@H]([C@@H](C)O)NC4=O)cc3)no2)cc1 [micafungin] (X1-[Orn(4R-OH,5R-OH)]T[Hyp][hTyr(3S-OH,4S-OH,3'-OSO3H)][Gln(3R-OH)][Pro(3S-OH,4S-Me)]; lactam 1-C)
clearance ([1]; patients with cancer (n = 10), 100 mg/day i.v. infusion over 60 min): 20 mL/min | clearance ([1]; patients without cancer (n = 9), 100-150 mg/day i.v. infusion over 60 min): 10 mL/min | Q (intercompartmental clearance) [1, 3]: 0.144 L/h | V1 (volume of the central compartment) [1, 3]: 10.7 L | V2 (volume of the peripheral compartment) [1, 3]: 3.5 L | Q (intercompartmental clearance) [1, 4]: 0.188 L/h | V1 (volume of the central compartment) [1, 4]: 12 L | V2 (volume of the peripheral compartment) [1, 4]: 2.77 L | terminal half-life ([2]; adults): approximately 15 h | unchanged drug excreted through the kidneys [2]: 1%
